Test results reported in PubChem BioAssay (NCI).
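Assay format: 96-well plates, 48-hour exposure. GI50 is the concentration that inhibits growth by half. TGI denotes the concentration required for complete inhibition of growth.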

Key:
Assay in all cases: DTP human tumour cell line panel, 48 h
COLO 205 colon = system: COLO 205 colon
OVCAR-3 ovarian = system: OVCAR-3 ovarian
BT-549 breast = system: BT-549 breast
NCI-H226 lung = system: NCI-H226 lung
UACC-257 melanoma = system: UACC-257 melanoma
KM12 colon = system: KM12 colon
CAKI-1 renal = system: CAKI-1 renal
UACC-62 melanoma = system: UACC-62 melanoma
SN12C renal = system: SN12C renal
T-47D breast = system: T-47D breast
RPMI-8226 leukemia = system: RPMI-8226 leukemia
IGROV1 ovarian = system: IGROV1 ovarian
HCT-116 colon = system: HCT-116 colon
SK-MEL-5 melanoma = system: SK-MEL-5 melanoma
EKVX NSCLC = system: EKVX NSCLC
HCT-15 colon = system: HCT-15 colon
A549 NSCLC = system: A549 NSCLC
SF-539 CNS = system: SF-539 CNS
CCRF-CEM leukemia = system: CCRF-CEM leukemia
NCI/ADR-RES ovarian = system: NCI/ADR-RES ovarian
TK-10 renal = system: TK-10 renal
HOP-62 NSCLC = system: HOP-62 NSCLC
OVCAR-5 ovarian = system: OVCAR-5 ovarian
MDA-MB-435 = system: MDA-MB-435
MCF7 breast = system: MCF7 breast
786-0 renal = system: 786-0 renal
HS 578T breast = system: HS 578T breast
UO-31 renal = system: UO-31 renal
SF-295 CNS = system: SF-295 CNS
SF-268 CNS = system: SF-268 CNS
K-562 leukemia = system: K-562 leukemia
PC-3 prostate = system: PC-3 prostate
MALME-3M melanoma = system: MALME-3M melanoma
MDA-MB-231 breast = system: MDA-MB-231 breast
MOLT-4 leukemia = system: MOLT-4 leukemia
U251 CNS = system: U251 CNS
DU-145 prostate = system: DU-145 prostate
OVCAR-8 ovarian = system: OVCAR-8 ovarian
NCI-H460 lung = system: NCI-H460 lung
SK-MEL-2 melanoma = system: SK-MEL-2 melanoma
ACHN renal = system: ACHN renal
NCI-H23 lung = system: NCI-H23 lung
HOP-92 NSCLC = system: HOP-92 NSCLC
HCC-2998 colon = system: HCC-2998 colon
SNB-75 CNS = system: SNB-75 CNS
SR leukemia = system: SR leukemia
SK-MEL-28 melanoma = system: SK-MEL-28 melanoma
HT29 colon = system: HT29 colon
RXF 393 renal = system: RXF 393 renal
SNB-19 CNS = system: SNB-19 CNS
A498 renal = system: A498 renal
SW-620 colon = system: SW-620 colon
HL-60(TB) leukemia = system: HL-60(TB) leukemia
OVCAR-4 ovarian = system: OVCAR-4 ovarian
M14 melanoma = system: M14 melanoma
SK-OV-3 ovarian = system: SK-OV-3 ovarian

C#C[C@]1(O)CC[C@H]2[C@@H]3CC=C4c5sc(Nc6cc(C)cc(C)c6)nc5CC[C@]4(C)[C@H]3CC[C@@]21C
GI50 (COLO 205 colon): 2.42 µM
TGI (COLO 205 colon): 5.9 µM
GI50 (OVCAR-3 ovarian): 3.59 µM
TGI (OVCAR-3 ovarian): 16.9 µM
GI50 (BT-549 breast): 0.556 µM
TGI (BT-549 breast): 5.82 µM
GI50 (NCI-H226 lung): 2.29 µM
TGI (NCI-H226 lung): 7.99 µM
GI50 (UACC-257 melanoma): 3.07 µM
TGI (UACC-257 melanoma): 21.7 µM
GI50 (KM12 colon): 2.6 µM
TGI (KM12 colon): 8.05 µM
GI50 (CAKI-1 renal): 2.69 µM
TGI (CAKI-1 renal): 15 µM
GI50 (UACC-62 melanoma): 1.69 µM
TGI (UACC-62 melanoma): 4.1 µM
GI50 (SN12C renal): 8.38 µM
TGI (SN12C renal): 30.5 µM
GI50 (T-47D breast): 3.4 µM
TGI (T-47D breast): 85.8 µM
GI50 (RPMI-8226 leukemia): 0.272 µM
TGI (RPMI-8226 leukemia): 0.823 µM
GI50 (IGROV1 ovarian): 4.85 µM
TGI (IGROV1 ovarian): 60.6 µM
GI50 (HCT-116 colon): 1.98 µM
TGI (HCT-116 colon): 10.1 µM
GI50 (SK-MEL-5 melanoma): 1.65 µM
TGI (SK-MEL-5 melanoma): 3.15 µM
GI50 (EKVX NSCLC): 3.12 µM
TGI (EKVX NSCLC): 31.3 µM
GI50 (HCT-15 colon): 1.88 µM
TGI (HCT-15 colon): 5.58 µM
GI50 (A549 NSCLC): 4.08 µM
TGI (A549 NSCLC): 28.5 µM
GI50 (SF-539 CNS): 0.392 µM
TGI (SF-539 CNS): 1.71 µM
GI50 (CCRF-CEM leukemia): 1.7 µM
TGI (CCRF-CEM leukemia): 8.43 µM
GI50 (NCI/ADR-RES ovarian): 4.86 µM
TGI (NCI/ADR-RES ovarian): 45.5 µM
GI50 (TK-10 renal): 9.87 µM
TGI (TK-10 renal): 36.5 µM
GI50 (HOP-62 NSCLC): 2.55 µM
TGI (HOP-62 NSCLC): 20.1 µM
GI50 (OVCAR-5 ovarian): 3.69 µM
TGI (OVCAR-5 ovarian): 15.8 µM
GI50 (MDA-MB-435): 2.83 µM
TGI (MDA-MB-435): 12.4 µM
GI50 (MCF7 breast): 1.61 µM
TGI (MCF7 breast): 6.22 µM
GI50 (786-0 renal): 0.429 µM
TGI (786-0 renal): 2.28 µM
GI50 (HS 578T breast): 0.526 µM
TGI (HS 578T breast): 5.89 µM
GI50 (UO-31 renal): 2.72 µM
TGI (UO-31 renal): 9.7 µM
GI50 (SF-295 CNS): 0.297 µM
TGI (SF-295 CNS): 0.966 µM
GI50 (SF-268 CNS): 2.54 µM
TGI (SF-268 CNS): 20.2 µM
GI50 (K-562 leukemia): 1.58 µM
TGI (K-562 leukemia): 4.33 µM
GI50 (PC-3 prostate): 1.53 µM
TGI (PC-3 prostate): 11.9 µM
GI50 (MALME-3M melanoma): 1.87 µM
TGI (MALME-3M melanoma): 5.6 µM
GI50 (MDA-MB-231 breast): 2.96 µM
TGI (MDA-MB-231 breast): 15.1 µM
GI50 (MOLT-4 leukemia): 0.555 µM
TGI (MOLT-4 leukemia): 5.83 µM
GI50 (U251 CNS): 1.09 µM
TGI (U251 CNS): 18.4 µM
GI50 (DU-145 prostate): 4.18 µM
TGI (DU-145 prostate): 21.8 µM
GI50 (OVCAR-8 ovarian): 7.08 µM
TGI (OVCAR-8 ovarian): > 100 µM
GI50 (NCI-H460 lung): 2.72 µM
TGI (NCI-H460 lung): 13 µM
GI50 (SK-MEL-2 melanoma): 1.46 µM
TGI (SK-MEL-2 melanoma): 10.3 µM
GI50 (ACHN renal): 3.72 µM
TGI (ACHN renal): 20.5 µM
GI50 (NCI-H23 lung): 2.87 µM
TGI (NCI-H23 lung): 17 µM
GI50 (HOP-92 NSCLC): 3.17 µM
TGI (HOP-92 NSCLC): 13.6 µM
GI50 (HCC-2998 colon): 5.47 µM
TGI (HCC-2998 colon): 23 µM
GI50 (SNB-75 CNS): 0.547 µM
TGI (SNB-75 CNS): 7.91 µM
GI50 (SR leukemia): 1.17 µM
TGI (SR leukemia): 5.88 µM
GI50 (SK-MEL-28 melanoma): 1.07 µM
TGI (SK-MEL-28 melanoma): 2.95 µM
GI50 (HT29 colon): 1.65 µM
TGI (HT29 colon): 4.32 µM
GI50 (RXF 393 renal): 0.142 µM
TGI (RXF 393 renal): 0.428 µM
GI50 (SNB-19 CNS): 2 µM
TGI (SNB-19 CNS): 11.6 µM
GI50 (A498 renal): 0.791 µM
TGI (A498 renal): 2.98 µM
GI50 (SW-620 colon): 2.12 µM
TGI (SW-620 colon): 4.89 µM
GI50 (HL-60(TB) leukemia): 1.29 µM
TGI (HL-60(TB) leukemia): 5.55 µM
GI50 (OVCAR-4 ovarian): 4.63 µM
TGI (OVCAR-4 ovarian): > 100 µM
GI50 (M14 melanoma): 1.58 µM
TGI (M14 melanoma): 6.87 µM
GI50 (SK-OV-3 ovarian): 2.23 µM
TGI (SK-OV-3 ovarian): 7.94 µM
